18 compounds from patent publication US10087188B2, “Benzamide imidazopyrazine Btk inhibitors” (MERCK SHARP & DOHME CORP., priority 2014, dated 2018) can be followed below.

pIC50: −log10 of the molar value.

By pIC50 is commonly meant the negative decadic logarithm of the IC50, by convention in mol/L.

Chain of BTK enzyme (recombinant full-length BTK, hBTK) (Q06187 whole entry): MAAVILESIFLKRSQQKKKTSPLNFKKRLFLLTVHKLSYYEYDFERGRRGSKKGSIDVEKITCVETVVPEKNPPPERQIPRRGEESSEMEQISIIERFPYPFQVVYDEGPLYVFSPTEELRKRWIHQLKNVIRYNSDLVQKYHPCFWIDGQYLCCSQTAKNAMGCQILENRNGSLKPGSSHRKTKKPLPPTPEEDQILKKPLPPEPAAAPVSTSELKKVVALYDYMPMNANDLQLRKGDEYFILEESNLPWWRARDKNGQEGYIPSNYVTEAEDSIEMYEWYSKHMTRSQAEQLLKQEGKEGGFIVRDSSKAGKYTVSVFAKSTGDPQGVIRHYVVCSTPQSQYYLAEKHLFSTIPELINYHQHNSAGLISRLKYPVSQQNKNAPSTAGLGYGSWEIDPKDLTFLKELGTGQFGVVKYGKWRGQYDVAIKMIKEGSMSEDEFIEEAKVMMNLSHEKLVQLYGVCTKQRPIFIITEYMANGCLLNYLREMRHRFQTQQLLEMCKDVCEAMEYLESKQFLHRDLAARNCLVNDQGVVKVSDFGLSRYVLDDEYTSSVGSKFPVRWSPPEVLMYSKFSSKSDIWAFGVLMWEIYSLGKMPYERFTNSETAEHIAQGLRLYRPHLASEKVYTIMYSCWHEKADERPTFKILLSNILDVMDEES

The first experiment has as its target BTK enzyme (recombinant full-length BTK, hBTK) (Homo sapiens (Human), UniProt Q06187). Briefly: Btk enzyme activity assay, LANCE TR-FRET. The note with it: 50 pM hBTK, 2 μM biotin-A5-peptide, 25 μM ATP; 60 minute compound & enzyme incubation; read-out: BTK binding IC50. The class given is biochemical. As for the experimental part: Btk Enzyme Activity Assay Methods
BTK enzymatic activity was determined with the LANCE (Lanthanide Chelate Excite) TR-FRET (Time-resolved fluorescence resonance energy transfer) assay. […] After 60 minutes incubation with detection reagents, reaction plates were read on a PerkinElmer EnVision plate reader using standard TR-FRET protocol.
On the technique in general: In TR-FRET formats the signal depends on donor and acceptor labels being close together.
For the compound `Nc1nccn2c([C@H]3CN(C(=O)C4(C(=O)O)CCC4)CCO3)nc(-c3ccc(C(=O)Nc4cc(C(F)(F)F)ccn4)cc3F)c12` [Example 178, 1-({(2R)-2-[8-amino-1-(2-fluoro-4-{[4-(trifluoromethyl)pyridin-2-yl]carbamoyl}phenyl)imidazo [1,5-a]pyrazin-3-yl]morpholin-4-yl}carbonyl)cyclobutane-carboxylic acid], the pIC50 was 8.07. Still for that read-out and setting: as for `COc1cc(C(=O)Nc2cc(C(F)(F)F)ccn2)ccc1-c1nc([C@H]2CCC[C@@H](C(=O)O)C2)n2ccnc(N)c12` [Example 5, (1R,3S)-3-[8-amino-1-(2-methoxy-4-{[4-(trifluoromethyl)pyridin-2-yl]carbamoyl}phenyl)imidazo [1,5-a]pyrazin-3-yl]cyclohexane-carboxylic acid], the figure is 7.39; as for `C[C@]1(C(=O)O)CCC[C@@H](c2nc(-c3ccc(C(=O)Nc4cc(C5CC5)ccn4)cc3F)c3c(N)nccn23)C1` [Example 156, (1S,3R)-3-(8-amino-1-{4-[(4-cyclopropylpyridin-2-yl)carbamoyl]-2-fluorophenyl}imidazo [1,5-a]pyrazin-3-yl)-1-methylcyclohexane-carboxylic acid], 8.77.

A further experiment relates to HeLa cells. The experiment can be described thus: [3H] Adenosine uptake assay. The note with it: Homo sapiens, HeLa, accumulation of tritiated adenosine into HeLa cells; compound concentration range 10 μM to 0.032 nM; read-out: ADU inhibition IC50 (adenosine uptake inhibition potency). It counts as cell-based. As for the experimental part: Compounds are also screen in an adenosine uptake functional cellular assay using the protocol described below:
[^3H] Adenosine Uptake Assay Methods
Adenosine uptake activity was determined by monitoring the accumulation of tritiated adenosine into HeLa cells (ATCC catalog #CCL-2) using a PMT-based radiometric detection instrument. […] These cells were incubated overnight at 37° C. in a humidified atmosphere with 5% (v/v) CO2. After this time the growth medium was removed and replaced with 40 μL assay medium comprising: Hanks balanced salts solution (HBSS; Thermo Fisher Catalog #SH30268.01)+5% (v/v) FBS. Compound stock solutions in DMSO were diluted in assay medium to 2.5× final compound concentration maintaining a constant DMSO concentration of 0.25% (v/v). 40 μL of compound in assay medium was dispensed into individual wells of the Cytostar-T plates and the plates were incubated for 30 minutes under ambient laboratory conditions. Following this incubation, 20 μL of 500 nM[^3H] adenosine (American Radiolabeled Chemicals Inc. Catalog #ART0287) in assay medium was added and incubated for a further 60 minutes under ambient laboratory conditions. The amount of radiolabel accumulation was then determined using a Perkin Elmer Topcount NXT microplate reader. In brief, HeLa cells adhere to the bottom of the Cytostar-T plate, uptake of [^3H]adenosine into these cells brings the radiolabel into sufficient proximity to excite the scintillant in the base of the plates. These events are captured by single PMT, time-resolved coincidence counting. IC50 values were determined by 4 parameter robust fit of counts per second values vs. (Log10) compound concentrations.
`Nc1nccn2c([C@@H]3CC[C@@H](CC(=O)O)C3)nc(-c3ccc(C(=O)Nc4cc(C(F)(F)F)ccn4)cc3)c12` [Example 55, {(1R,3R)-3-[8-amino-1-(4-{[4-(trifluoromethyl)pyridin-2-yl]carbamoyl}phenyl)imidazo[1,5-a]pyrazin-3-yl]cyclopentyl}acetic acid]: the pIC50 was 5.10.

The experiment is the same for the next values; noted with them: Homo sapiens; accumulation of tritiated adenosine into HeLa cells; compound concentration range 10 μM to 0.032 nM; read-out: ADU inhibition IC50 (adenosine uptake inhibition potency).
`C[C@@]1(C(=O)O)CC[C@H](c2nc(-c3ccc(C(=O)Nc4cc(C(F)(F)F)ccn4)cc3)c3c(N)nccn23)C1` [Example 40, (1R,3S)-3-[8-amino-1-(4-{[4-(trifluoromethyl)pyridin-2-yl]carbamoyl}phenyl)imidazo[1,5-a]pyrazin-3-yl]-1-methylcyclopentane-carboxylic acid]: the pIC50 was 5.28. Still for that read-out and setting: under `CC(C)[C@]1(C(=O)O)CC[C@H](c2nc(-c3ccc(C(=O)Nc4cc(C(F)(F)F)ccn4)cc3)c3c(N)nccn23)C1` [Example 49, (1S,3S)-3-[8-amino-1-(4-{[4-(trifluoromethyl)pyridin-2-yl]carbamoyl}phenyl)imidazo[1,5-a]pyrazin-3-yl]-1-(1-methylethyl) cyclopentane-carboxylic acid] stands 6.04. On the same count and under the same terms, under `CC(C)[C@@]1(C(=O)O)CC[C@H](c2nc(-c3ccc(C(=O)Nc4cc(C(F)(F)F)ccn4)cc3)c3c(N)nccn23)C1` [Example 48, (1R,3S)-3-[8-amino-1-(4-{[4-(trifluoromethyl)pyridin-2-yl]carbamoyl}phenyl)imidazo[1,5-a]pyrazin-3-yl]-1-(1-methylethyl) cyclopentane-carboxylic acid] stands 5.42; under `Nc1nccn2c1c(-c1ccc(C(=O)Nc3cc(C(F)(F)F)ccn3)cc1)nc2[C@H]1CC[C@@H](C(=O)O)CC1` [Example 158, cis-4-[8-amino-1-(4-{[4-(trifluoromethyl)pyridin-2-yl]carbamoyl}phenyl)imidazo[1,5-a]pyrazin-3-yl]cyclohexane-carboxylic acid], 5.00; under `CC(C)[C@H]1CC[C@@H](c2nc(-c3ccc(C(=O)Nc4cc(C(F)(F)F)ccn4)cc3)c3c(N)nccn23)C[C@H]1C(=O)O` [Example 99, (1R,2R,5R)-5-[8-amino-1-(4-{[4-(trifluoromethyl)pyridin-2-yl]carbamoyl}phenyl)imidazo[1,5-a]pyrazin-3-yl]-2-(1-methylethyl) cyclohexane-carboxylic acid], 5.60.

Regarding `C[C@]1(C(=O)O)CCC[C@@H](c2nc(-c3ccc(C(=O)Nc4cc(C(F)(F)F)ccn4)cc3)c3c(N)nccn23)C1` [Example 154, (1S,3R)-3-[8-amino-1-(4-{[4-(trifluoromethyl)pyridin-2-yl]carbamoyl}phenyl)imidazo[1,5-a]pyrazin-3-yl]-1-methylcyclohexane-carboxylic acid], the pIC50 is 5.00. On the same count and under the same terms, under `Nc1nccn2c([C@H]3CC[C@@H](C(=O)O)C3)nc(-c3ccc(C(=O)Nc4cc(C(F)(F)F)ccn4)cc3)c12` [Example 14, (1R,3S)-3-(8-amino-1-(4-((4-(trifluoromethyl)pyridin-2-yl)carbamoyl)phenyl)imidazo[1,5-a]pyrazin-3-yl)cyclopentanecarboxylic acid] stands 5.60; under `Nc1nccn2c([C@H]3C[C@@H]4[C@H](C3)[C@@H]4C(=O)O)nc(-c3ccc(C(=O)Nc4cc(C(F)(F)F)ccn4)cc3)c12` [Example 140, (1R,3r,5S,6s)-3-[8-amino-1-(4-{[4-(trifluoromethyl)pyridin-2-yl]carbamoyl}phenyl)imidazo[1,5-a]pyrazin-3-yl]bicyclo[3.1.0] hexane-6-carboxylic acid], 5.00.

As for `C[C@]1(C(=O)O)CC[C@@H](c2nc(-c3ccc(C(=O)Nc4cc(C(F)(F)F)ccn4)cc3)c3c(N)nccn23)C1` [Example 37, (1S,3R)-3-[8-amino-1-(4-{[4-(trifluoromethyl)pyridin-2-yl]carbamoyl}phenyl)imidazo[1,5-a]pyrazin-3-yl]-1-methylcyclopentane-carboxylic acid], the pIC50 is 5.07. The same measure, in the same setting: under `Nc1nccn2c([C@H]3C[C@@H]4[C@H](C3)[C@H]4C(=O)O)nc(-c3ccc(C(=O)Nc4cc(C(F)(F)F)ccn4)cc3)c12` [Example 139, (1R,3R,5S,6r)-3-[8-amino-1-(4-{[4-(trifluoromethyl)pyridin-2-yl]carbamoyl}phenyl)imidazo[1,5-a]pyrazin-3-yl]bicyclo[3.1.0] hexane-6-carboxylic acid] stands 5.00; under `Nc1nccn2c([C@@H]3C[C@@H]4[C@H](C3)[C@H]4C(=O)O)nc(-c3ccc(C(=O)Nc4cc(C(F)(F)F)ccn4)cc3)c12` [Example 125, (1R,3R,5S,6r)-3-[8-amino-1-(4-{[4-(trifluoromethyl)pyridin-2-yl]carbamoyl}phenyl)imidazo[1,5-a]pyrazin-3-yl]bicyclo[3.1.0]hexane-6-carboxylic acid], 5.57; under `CC(C)[C@]1(C(=O)O)CCC[C@@H](c2nc(-c3ccc(C(=O)Nc4cc(C(F)(F)F)ccn4)cc3)c3c(N)nccn23)C1` [Example 89, (1S,3R)-3-[8-amino-1-(4-{[4-(trifluoromethyl)pyridin-2-yl]carbamoyl}phenyl)imidazo[1,5-a]pyrazin-3-yl]-1-(1-methylethyl) cyclohexane-carboxylic acid], 5.47. The same measure, in the same setting: under `CC(C)[C@]1(C(=O)O)CC[C@@H](c2nc(-c3ccc(C(=O)Nc4cc(C(F)(F)F)ccn4)cc3)c3c(N)nccn23)C1` [Example 46, (1S,3R)-3-[8-amino-1-(4-{[4-(trifluoromethyl)pyridin-2-yl]carbamoyl}phenyl)imidazo[1,5-a]pyrazin-3-yl]-1-(1-methylethyl) cyclopentane carboxylic acid] stands 5.40; under `Nc1nccn2c([C@@H]3C[C@@H]4[C@H](C3)[C@@H]4C(=O)O)nc(-c3ccc(C(=O)Nc4cc(C(F)(F)F)ccn4)cc3)c12` [Example 124, (1R,3r,5S,6s)-3-[8-amino-1-(4-{[4-(trifluoromethyl)pyridin-2-yl]carbamoyl}phenyl)imidazo[1,5-a]pyrazin-3-yl]bicyclo[3.1.0] hexane-6-carboxylic acid], 5.21.
